# Test results taken from ChEMBL document CHEMBL4765259, “Synthesis and biological evaluation of novel shikonin-benzo[b]furan derivatives as tubulin polymerization inhibitors targeting the colchicine binding site” (Eur J Med Chem, 2020).
# Tests used:
# [1] = Antiproliferative activity against human LO2 cells incubated for 48 hrs by MTT assay; type: cell-based, L02
# [2] = species: Homo sapiens; test: Inhibition of [3H]colchicine binding to tubulin (unknown origin) at 4 uM incubated for 2 hrs by scintillation counting method relative to control
# [3] = system: MCF7; test: cells; settings: Homo sapiens, MCF7, 48 h
# Description: Antiproliferative activity against drug-resistant human MCF7 cells incubated for 48 hrs by MTT assay
# [4] = system: HT-29; test: Antiproliferative activity against human HT29 cells incubated for 48 hrs by MTT assay; type: functional, cell-based; settings: HT-29, 48 h
# [5] = system: K562; test: cells; settings: Homo sapiens, K562, 48 h
# Description: Antiproliferative activity against human K562 cells incubated for 48 hrs by MTT assay
# [6] = system: K562; test: Antiproliferative activity against drug resistant human K562 cells incubated for 48 hrs by MTT assay; type: functional, cell-based; settings: K562, 48 h
# [7] = Antiproliferative activity against human HEK293T cells incubated for 48 hrs by MTT assay; type: cell-based, HEK-293T
# [8] = system: MDA-MB-231; test: cells; settings: Homo sapiens, MDA-MB-231, 48 h
# [9] = species: Homo sapiens; test: Inhibition of [3H]colchicine binding to tubulin (unknown origin) at 2 uM incubated for 2 hrs by scintillation counting method relative to control
# [10] = system: HepG2; test: Antiproliferative activity against human HepG2 cells incubated for 48 hrs by MTT assay; type: functional, cell-based; settings: HepG2, 48 h
# [11] = system: MCF7; test: cells; settings: Homo sapiens, MCF7, 48 h; remark: listed apart in the source
# [12] = Inhibition of tubulin polymerization (unknown origin) measured every 2 mins for 60 mins by spectrophotometric method; parameters: species or system Homo sapiens
# [13] = system: A549; test: cells; settings: Homo sapiens, A549, 48 h
# [14] = system: HCT-116; test: cells; settings: Homo sapiens, HCT-116, 48 h
# Description: Antiproliferative activity against human HCT116 cells incubated for 48 hrs by MTT assay
# [15] = system: HT-29; test: Induction of apoptosis in human HT-29 cells assessed as viable cells at […] measured after 24 hrs by Annexin V-FITC/propidium iodide staining based flow cytometry (reference value: 97.7 %); type: functional; settings: dose 0.25 µM, read-out: Activity
# [16] = system: HT-29; test: Induction of apoptosis in human HT-29 cells assessed as early apoptotic cells at 1 uM measured after 24 hrs by Annexin V-FITC/propidium iodide staining based flow cytometry (reference value: 1.1 %); type: functional
# [17] = system: HT-29; test: Cell cycle arrest in human HT29 cells assessed as cell accumulation at S phase at 1 uM incubated for 24 hrs by propidium iodide staining based flow cytometry (reference value: 17.15 %); type: functional
# [18] = system: HT-29; test: Induction of apoptosis in human HT-29 cells assessed as late apoptotic cells at 0.5 uM measured after 24 hrs by Annexin V-FITC/propidium iodide staining based flow cytometry (reference value: 0.5 %); type: functional
# [19] = system: HT-29; test: Induction of apoptosis in human HT-29 cells assessed as late apoptotic cells at 1 uM measured after 24 hrs by Annexin V-FITC/propidium iodide staining based flow cytometry (reference value: 0.5 %); type: functional
# [20] = system: HT-29; test: Induction of apoptosis in human HT-29 cells assessed as late apoptotic cells at […] measured after 24 hrs by Annexin V-FITC/propidium iodide staining based flow cytometry (reference value: 0.5 %); type: functional; settings: dose 0.25 µM
# [21] = system: HT-29; test: Cell cycle arrest in human HT29 cells assessed as cell accumulation at G2 phase at 1 uM incubated for 24 hrs by propidium iodide staining based flow cytometry (reference value: 12.53 %); type: functional
# [22] = system: HT-29; test: Cell cycle arrest in human HT29 cells assessed as cell accumulation at S phase at 0.5 uM incubated for 24 hrs by propidium iodide staining based flow cytometry (reference value: 17.15 %); type: functional
# [23] = system: HT-29; test: Induction of apoptosis in human HT-29 cells assessed as early apoptotic cells at […] measured after 24 hrs by Annexin V-FITC/propidium iodide staining based flow cytometry (reference value: 1.1 %); type: functional; settings: dose 0.25 µM
# [24] = system: HT-29; test: Cell cycle arrest in human HT29 cells assessed as cell accumulation at S phase at […] incubated for 24 hrs by propidium iodide staining based flow cytometry (reference value: 17.15 %); type: functional; settings: dose 0.25 µM
# [25] = system: HT-29; test: Cell cycle arrest in human HT29 cells assessed as cell accumulation at G1 phase at 1 uM incubated for 24 hrs by propidium iodide staining based flow cytometry (reference value: 70.33 %); type: functional
# [26] = system: HT-29; test: Induction of apoptosis in human HT-29 cells assessed as viable cells at 0.5 uM measured after 24 hrs by Annexin V-FITC/propidium iodide staining based flow cytometry (reference value: 97.7 %); type: functional; settings: read-out: Activity
# [27] = system: HT-29; test: Cell cycle arrest in human HT29 cells assessed as cell accumulation at G1 phase at […] incubated for 24 hrs by propidium iodide staining based flow cytometry (reference value: 70.33 %); type: functional; settings: dose 0.25 µM
# [28] = system: HT-29; test: Cell cycle arrest in human HT29 cells assessed as cell accumulation at G1 phase at 0.5 uM incubated for 24 hrs by propidium iodide staining based flow cytometry (reference value: 70.33 %); type: functional
# [29] = system: HT-29; test: Induction of apoptosis in human HT-29 cells assessed as necrotic cells at […] measured after 24 hrs by Annexin V-FITC/propidium iodide staining based flow cytometry (reference value: 0.7 %); type: functional; settings: dose 0.25 µM
# [30] = system: HT-29; test: Induction of apoptosis in human HT-29 cells assessed as viable cells at 1 uM measured after 24 hrs by Annexin V-FITC/propidium iodide staining based flow cytometry (reference value: 97.7 %); type: functional; settings: read-out: Activity
# [31] = system: HT-29; test: Induction of apoptosis in human HT-29 cells assessed as necrotic cells at 1 uM measured after 24 hrs by Annexin V-FITC/propidium iodide staining based flow cytometry (reference value: 0.7 %); type: functional
# [32] = system: HT-29; test: Induction of apoptosis in human HT-29 cells assessed as necrotic cells at 0.5 uM measured after 24 hrs by Annexin V-FITC/propidium iodide staining based flow cytometry (reference value: 0.7 %); type: functional
# [33] = system: HT-29; test: Cell cycle arrest in human HT29 cells assessed as cell accumulation at G2 phase at […] incubated for 24 hrs by propidium iodide staining based flow cytometry (reference value: 12.53 %); type: functional; settings: dose 0.25 µM
# [34] = system: HT-29; test: Cell cycle arrest in human HT29 cells assessed as cell accumulation at G2 phase at 0.5 uM incubated for 24 hrs by propidium iodide staining based flow cytometry (reference value: 12.53 %); type: functional
# [35] = system: HT-29; test: Induction of apoptosis in human HT-29 cells assessed as early apoptotic cells at 0.5 uM measured after 24 hrs by Annexin V-FITC/propidium iodide staining based flow cytometry (reference value: 1.1 %); type: functional
# [36] = AUC (0 to infinity) in Sprague-Dawley rat at 1.5 mg/kg, iv by UPLC/MS analysis; type: ADME, organism-based; parameters: time infinity, route intravenous, dose 1.5 mg/kg; settings: in vivo
# [37] = Half life in Sprague-Dawley rat at 1.5 mg/kg, iv by UPLC/MS analysis; type: ADME, organism-based; settings: in vivo
# [38] = Apparent volume of distribution in Sprague-Dawley rat at 1.5 mg/kg, iv by UPLC/MS analysis; type: ADME, organism-based; settings: in vivo, read-out: Vz
# [39] = Mean residence time (0 to infinity) in Sprague-Dawley rat at 1.5 mg/kg, iv by UPLC/MS analysis; type: ADME, organism-based; settings: in vivo
smiles,measurement,setting,value
COc1ccc(/C=C\c2cc(OC)c(OC)c(OC)c2)cc1O [COMBRETASTATIN A4],CC50 at 48 h,[1],0.36 µM
same,inhibition,[2],93%
same,IC50,[3],0.49 µM
same,IC50,[4],0.31 µM
same,IC50,[5],0.61 µM
same,IC50,[6],6.15 µM
same,CC50 at 48 h,[7],1.44 µM
same,IC50,[8],0.09 µM
same,inhibition,[9],81.5%
same,IC50,[10],0.27 µM
same,IC50,[11],0.25 µM
same,IC50,[12],1.12 µM
same,IC50,[13],0.23 µM
same,IC50,[14],0.11 µM
CC(C)=CC[C@@H](O)C1=CC(=O)c2c(O)ccc(O)c2C1=O [SHIKONIN],CC50 at 48 h,[1],11.8 µM
same,IC50,[3],23.4 µM
same,IC50,[4],2.8 µM
same,viability at […],[15],91%
same,Activity,[16],19.5%
same,IC50,[5],20.3 µM
same,IC50,[6],121 µM
same,Activity,[17],43.57%
same,CC50 at 48 h,[7],7 µM
same,IC50,[8],2.77 µM
same,Activity,[18],0.4%
same,Activity,[19],3.2%
same,Activity,[20],0.7%
same,Activity,[21],24.51%
same,Activity,[22],27.08%
same,Activity,[23],7.1%
same,Activity,[24],28.1%
same,IC50,[10],2.92 µM
same,Activity,[25],32.11%
same,IC50,[11],5.4 µM
same,viability at 0.5 µM,[26],87%
same,Activity,[27],52.4%
same,IC50,[13],10.2 µM
same,IC50,[14],2.47 µM
same,Activity,[28],50.02%
same,Activity,[29],1.2%
same,viability at 1 µM,[30],76.7%
same,Activity,[31],0.6%
same,Activity,[32],0.7%
same,Activity,[33],19.5%
same,Activity,[34],22.9%
same,Activity,[35],11.9%
COc1ccc2cc(C(=O)O[C@H](CC=C(C)C)C3=CC(=O)c4c(O)ccc(O)c4C3=O)oc2c1,AUC(0-inf),[36],2.16 µg·h/mL
same,half-life,[37],3.81 h
same,Vd,[38],3.35 L/kg
same,MRT inf,[39],5.12 h
